Data taken from patent publication US20160175284A1, “ESTROGEN RECEPTOR MODULATORS AND USES THEREOF” (Genentech, Inc., priority 2014, published 2016).

These compounds were tested against T1, estrogen receptor alpha (ESR1) in MCF7 breast cancer cells (Homo sapiens, UniProt P03372) (assay: Breast Cancer Cell ERa High Content Fluorescence Imaging Assay (F10)). Settings: 4 hours, plateau of the maximal effect, DMSO and 5 nM Fulvestrant define 0% and 100% changes in ESR1.
T1 construct: endogenous in cells; host or cells: MCF7 breast cancer cells
T1 sequence (P03372 1-595): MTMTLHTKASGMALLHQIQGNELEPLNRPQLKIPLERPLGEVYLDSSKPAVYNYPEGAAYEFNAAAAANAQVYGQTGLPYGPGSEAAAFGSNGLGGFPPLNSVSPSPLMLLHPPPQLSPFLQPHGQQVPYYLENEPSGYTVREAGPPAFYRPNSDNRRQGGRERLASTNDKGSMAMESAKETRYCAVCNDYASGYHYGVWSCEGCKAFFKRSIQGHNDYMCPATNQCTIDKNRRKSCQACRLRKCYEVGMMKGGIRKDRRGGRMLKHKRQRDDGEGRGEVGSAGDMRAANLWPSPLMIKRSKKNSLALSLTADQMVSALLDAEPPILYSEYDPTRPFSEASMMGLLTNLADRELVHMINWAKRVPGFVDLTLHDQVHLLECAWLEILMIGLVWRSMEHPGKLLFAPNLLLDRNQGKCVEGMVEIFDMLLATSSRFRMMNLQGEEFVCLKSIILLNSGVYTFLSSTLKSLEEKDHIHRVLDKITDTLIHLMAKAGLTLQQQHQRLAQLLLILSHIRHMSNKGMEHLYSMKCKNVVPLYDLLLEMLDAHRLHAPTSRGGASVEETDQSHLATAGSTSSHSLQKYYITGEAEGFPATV
Assay type: cell-based
Description: Breast Cancer Cell ERa High Content Fluorescence Imaging Assay (F10)
Cell plates were incubated at 37° C., for 4 hours. Fixation and permeabilization were carried out using a Biotek EL406 plate washer and dispenser as follows. […] Samples were incubated 30 minutes. Well contents was aspirated and 50 ul/well of Phosphate Buffered Saline (PBS) containing 0.5% w/v bovine serum albumen, 0.5% v/v Triton X-100 (Antibody Dilution Buffer) was added to each well. Samples were incubated for 30 minutes. Well contents were aspirated and washed 3 times with 100 ul/well of PBS. Immunofluorescence staining of estrogen receptor alpha (ESR1) was carried out using a Biotek EL406 plate washer and dispenser as follows. […] Samples were incubated for 2 hours at room temperature. Samples were washed 4 times with 100 ul/well of PBS. […] Samples were incubated for 2 hours at room temperature. Samples were washed 3 times with 100 ul/well of PBS using a Biotek EL406. Quantitative fluorescence imaging of ESR1 was carried out using a Cellomics Arrayscan V (Thermo). […] Channel 1 (DNA stain) was used to define the nuclear region (Circ). […] Data analysis was carried out using Genedata Screener Software, with DMSO and 5 nM Fulvestrant treated samples being used to define the 0% and 100% changes in ESR1. The “Robust Fit” method was used to define the inflexion point of curve (EC50) and the plateau of the maximal effect (Sinf).
For CC1=C(c2cccc(F)c2F)C(c2ccc(OCCN3CC(CF)C3)cc2)Oc2ccc(O)cc21 (stereo not shown) [Example 4, 3-(2,3-Difluorophenyl)-2-(4-(2-(3-(fluoromethyl)azetidin-1-yl)ethoxy)phenyl)-4-methyl-2H-chromen-6-ol], the “ER-alpha MCF7 HCS Sinf (%)” value was −98%. For CC1=C(c2cccc(S(C)(=O)=O)c2)C(c2ccc(OCCN3CC(CF)C3)cc2)Oc2ccc(O)cc21 (stereo not shown) [Example 9, 2-(4-(2-(3-(Fluoromethyl)azetidin-1-yl)ethoxy)phenyl)-4-methyl-3-(3-(methylsulfonyl)phenyl)-2H-chromen-6-ol], the “ER-alpha MCF7 HCS Sinf (%)” value was −99%. For CC(=O)Nc1ccc(C2=C(C)c3cc(O)ccc3OC2c2ccc(OCCN3CC(CF)C3)cc2)cc1 (stereo not shown) [Example 11, N-(4-(2-(4-(2-(3-(Fluoromethyl)azetidin-1-yl)ethoxy)phenyl)-6-hydroxy-4-methyl-2H-chromen-3-yl)phenyl)acetamide], the “ER-alpha MCF7 HCS Sinf (%)” value was −93%. In the case of CC1=C(c2cc(F)cc(F)c2)[C@@H](c2ccc(OCCN3CC(CF)C3)cc2)Oc2ccc(O)cc21 [Example 19, (R)- and (S)-3-(3,5-Difluorophenyl)-2-(4-(2-(3-(fluoromethyl)azetidin-1-yl)ethoxy)phenyl)-4-methyl-2H-chromen-6-ol], the “ER-alpha MCF7 HCS Sinf (%)” value is reported as −50%. For CC1=C(c2ccc(S(C)(=O)=O)cc2)C(c2ccc(OCCN3CC(CF)C3)cc2)Oc2ccc(O)cc21 (stereo not shown) [Example 8, 2-(4-(2-(3-(fluoromethyl)azetidin-1-yl)ethoxy)phenyl)-4-methyl-3-(4-(methylsulfonyl)phenyl)-2H-chromen-6-ol], the “ER-alpha MCF7 HCS Sinf (%)” value was −90%. CC1=C(c2ccc(F)c(C#N)c2)[C@@H](c2ccc(OCCN3CC(CF)C3)cc2)Oc2ccc(O)cc21 [Example 34, (R)-2-fluoro-5-(2-(4-(2-(3-(fluoromethyl)azetidin-1-yl)ethoxy)phenyl)-6-hydroxy-4-methyl-2H-chromen-3-yl)benzonitrile] was tested, and the “ER-alpha MCF7 HCS Sinf (%)” value was −88%. For CC1=C(c2cc(F)ccc2C)C(c2ccc(OCCN3CC(CF)C3)cc2)Oc2ccc(O)cc21 (stereo not shown) [Example 7, 3-(5-Fluoro-2-methylphenyl)-2-(4-(2-(3-(fluoromethyl)azetidin-1-yl)ethoxy)phenyl)-4-methyl-2H-chromen-6-ol], the “ER-alpha MCF7 HCS Sinf (%)” value was −99%.
